Calls of active or inactive are those of the source. No rule for the calls is given here.
Tested on: HepG2 cytotoxicity
Assay: HepG2 cell cytotoxicity, cytotoxicity control (AID 1159563)

O=C(CN(Cc1ccccn1)Cc1ccccn1)NCc1ccc(-c2csnn2)cc1
IC50: 25 µM

CC(C)(C)CC(=O)NCCc1csc(-c2ccc(F)cc2)n1
IC50: > 100 µM (inactive)

CN(C(=O)Nc1ccc2c(c1)CCN(C1CCC1)CC2)c1ccc(C#N)cc1
IC50: > 100 µM (inactive)

COc1ccc2nc(N(Cc3cccnc3)C(=O)C3CCC3)sc2c1
IC50: > 100 µM (inactive)

O=c1cc(NCCCNCc2c[nH]c3ccc(Br)cc23)[nH]c2ccccc12
IC50: > 100 µM (inactive)

CS(=O)(=O)c1cccc(CNC(=O)c2cncc(N3CCN(c4ccc(F)cc4)CC3)c2)c1
IC50: > 100 µM (inactive)

Cc1ccc(C)c(OC2CCN(C(=O)C(C)n3ccnc3)CC2)c1 (centres undefined)
IC50: > 100 µM (inactive)

COc1ccc(OC)c2c(=O)c(Cc3ccccc3)c(C)[nH]c12
IC50: > 100 µM (inactive)

O=C(c1ccc(OCCCc2cnc[nH]2)cc1)C1CC1
IC50: > 100 µM (inactive)

COc1ccc(-c2nc3ccncc3c(=O)n2CCOc2ccccc2)cc1
IC50: > 100 µM (inactive)

O=C(Nc1nc(-c2ccccn2)cs1)c1ccccc1-n1cnnn1
IC50: 1.6 µM

COc1ccc([N+](=O)[O-])cc1NC(=O)Nc1cccc(Cl)c1
IC50: > 100 µM (inactive)

CCN(CC)c1nc(N(C)C)nc2c1CN(Cc1ccccc1)CC2
IC50: 63 µM

N#Cc1ccccc1S(=O)(=O)N1CCN(C(=O)CNC(=O)c2ccc3c(c2)OCO3)CC1
IC50: > 100 µM (inactive)

CCOc1ccc(Nc2ccc(S(=O)(=O)N3CCN(C)CC3)cc2[N+](=O)[O-])cc1OCC
IC50: > 100 µM (inactive)

COC(=O)c1ccc(-c2cnc3ccc(NCc4ccccn4)nn23)cc1
IC50: 100 µM

Clc1ccc(OCCN2CCCCC2c2cccnc2)c(Cl)c1 (centres undefined)
IC50: 79 µM

CN(Cc1ccc(F)cc1)c1ccc(OCC(=O)N2CCCCC2c2cccnc2)nn1 (centres undefined)
IC50: > 100 µM (inactive)

C=CCOCC1Cn2nc([N+](=O)[O-])nc2O1 (centres undefined)
IC50: > 100 µM (inactive)

CN(C)S(=O)(=O)c1ccc(Cl)c(C(=O)Nc2nc(-c3ccccn3)cs2)c1
IC50: > 100 µM (inactive)

C[C@@H](Oc1cc(-n2cnc3ccc(O[C@H]4CCNC4)cc32)sc1C(N)=O)c1ccccc1Cl
IC50: 16 µM

O=C1CCCCCC1(Cc1cnc[nH]1)c1ccc(Cl)cc1Cl (centres undefined)
IC50: 79 µM

O=C(CN(c1cccc(C(F)(F)F)c1)S(=O)(=O)c1ccc(Cl)cc1)NCc1ccc(F)c(F)c1
IC50: > 100 µM (inactive)

O=[N+]([O-])c1ccc(C2=CC(c3ccccc3)=NCCN2)cc1
IC50: 50 µM

O=C(Nc1n[nH]c(-c2ccccn2)n1)C1CC1c1ccccc1 (centres undefined)
IC50: > 100 µM (inactive)

O=C(Nc1nc(-c2ccc(S(=O)(=O)N3CCOCC3)cc2)cs1)c1ccc([N+](=O)[O-])cc1
IC50: > 100 µM (inactive)

CCS(=O)(=O)Nc1ccc(C2=NN(C(=O)c3cccs3)C(c3ccccc3OC)C2)cc1 (centres undefined)
IC50: > 100 µM (inactive)

Cc1[nH]nc(-c2nc3ccccc3[nH]2)c1C(=O)NC1CCCNC1 (centres undefined)
IC50: > 100 µM (inactive)

CC(C)c1nn(-c2nc(N)nc(-c3ccccn3)n2)c(N)c1C1CCCCC1
IC50: 20 µM

O=C(NC(c1ccc(Cl)cc1)c1cnccn1)C1CCN(C(=O)Nc2cccc(C(F)(F)F)c2)CC1 (centres undefined)
IC50: > 100 µM (inactive)

COc1ccccc1-c1c(C)[nH]c2nc(N)nc(C)c12
IC50: > 100 µM (inactive)

O=C(C1CCCCC1)N1CCN(c2nnc(-c3ccccc3)c3ccccc23)CC1
IC50: > 100 µM (inactive)

Cc1ccccc1NS(=O)(=O)c1ccc2[nH]cc(C(=O)NC3CCCC(C)C3C)c(=O)c2c1 (centres undefined)
IC50: 40 µM

CCNc1cc(-c2ccccn2)nc(Nc2ccc(OC)cc2)n1
IC50: 40 µM

CCCNC(=O)Nc1cccc(-c2nc3ncccc3o2)c1
IC50: > 100 µM (inactive)

Cc1nc(N2CCC(C(=O)N3CCC(O)(c4cccnc4)CC3)CC2)nc2ccc(C(C)C)cc12
IC50: 79 µM

CCN(CC)c1nc(Nc2ccncc2)nc2ccccc12
IC50: 50 µM

Cc1ccc(NC(=O)c2ccc([N+](=O)[O-])s2)cc1S(=O)(=O)N1CCOCC1
IC50: 16 µM

CCOc1cc(NCCCN2CCN(C)CC2)c2ncccc2c1
IC50: 32 µM
